Reference: patent US20070276034A1, “Compounds, compositions and methods for the treatment of synucleinopathies” (priority 2002, published 2007)
Where two headings read alike, the source gives them in different places.

Assays:
Type in all cases: biochemical
Aβ 1-42 fibrils = biological target: T1, Aβ 1-42 fibrils (Homo sapiens, UniProt P05067); assay: Thioflavin T fluorometry - disruption of pre-formed Aβ 1-42 Alzheimer's fibrils; conditions: 25 μM pre-fibrillized Aβ 1-42, 37° C., 3 days, read-out: % Inhibition Aβ (result ± S.D.)
T1 construct: purchased Bachem Inc
Description: In one study, Thioflavin T fluorometry was used to determine the effects of the compounds, and of EDTA (as a negative control). In this assay Thioflavin T binds specifically to fibrillar amyloid, and this binding produces a fluorescence enhancement at 485 nm that is directly proportional to the amount of amyloid fibrils formed. The higher the fluorescence, the greater the amount of amyloid fibrils formed (Naki et al., Lab. Invest. 65:104-110, 1991; Levine III, Protein Sci. 2:404-410, 1993; Amyloid: Int. J. Exp. Clin. Invest. 2:1-6, 1995).
(§1) In this study, 25 μM of pre-fibrillized Aβ 1-42 (Bachem Inc) was incubated at 37° C. for 3 days either alone, or in the presence of one of the compounds or EDTA (at Aβ:test compound weight ratios of 1:1, 1:0.1, 1:0.01 or 1:0.001). Following 3-days of co-incubation, 50 μl of each incubation mixture was transferred into a 96-well microtiter plate containing 150 μl of distilled water and 50 μl of a Thioflavin T solution (i.e. 500 mM Thioflavin T in 250 mM phosphate buffer, pH 6.8). The fluorescence was read at 485 nm (444 nm excitation wavelength) using an ELISA plate fluorometer after subtraction with buffer alone or compound alone, as blank.

IAPP fibrils [1] = biological target: T2, IAPP fibrils (Homo sapiens, UniProt P10997); assay: Thioflavin T fluorometry - disruption of type 2 diabetes IAPP fibrils; conditions: 25 μM pre-fibrillized IAPP, 37° C., 3 days, read-out: % Inhibition IAPP (result ± S.D.)
T2 construct: purchased Bachem Inc
T2 sequence (P10997 34-70 limits assumed): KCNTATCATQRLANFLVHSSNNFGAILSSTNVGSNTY
Experimental: (§2) In this assay Thioflavin T binds specifically to fibrillar amyloid, and this binding produces a fluorescence enhancement at 485 nm that is directly proportional to the amount of IAPP fibrils present. The higher the fluorescence, the greater the amount of IAPP fibrils present (Naki et al, Lab. Invest. 65:104-110, 1991; Levine III, Protein Sci. 2:404-410, 1993; Amyloid: Int. J. Exp. Clin. Invest. 2:1-6, 1995).
as §1, with “IAPP” for “Aβ 1-42”, “IAPP:test” for “Aβ:test”

IAPP fibrils [2] = biological target: T2, IAPP fibrils; assay: Congo red binding assay with IAPP fibrils; conditions: 3-day incubation
Experimental: In the Congo red binding assay the ability of a given test compound to alter amyloid (in this case, IAPP) binding to Congo red is quantified. In this assay, IAPP and test compounds were incubated for 3 days and then vacuum filtered through a 0.2 μm filter. The amount of IAPP retained in the filter was then quantitated following staining of the filter with Congo red. After appropriate washing of the filter, any lowering of the Congo red color on the filter in the presence of the test compound (compared to the Congo red staining of the amyloid protein in the absence of the test compound) was indicative of the test compound's ability to diminish/alter the amount of aggregated and congophilic IAPP.
In the study, the ability of IAPP fibrils to bind Congo red in the absence or presence of increasing amounts of the compounds or EDTA (at IAPP:test compound weight ratios of 1:1, 1:0.1, 1:0.01 or 1:0.001) was determined.

NAC fibrils = biological target: T3, NAC fibrils (Homo sapiens, UniProt P37840); assay: Thioflavin T fluorometry - disruption of Parkinson's disease NAC fibrils; conditions: 3 days; for inhibition: 25 μM pre-fibrillized NAC, 37° C., read-out: % Inhibition NAC (result ± S.D.); for disruption/disassembly of pre-formed NAC fibrils (in words): all concentrations tested (ratios 1:1 to 1:0.001)
T3 construct: NAC is a 35-amino acid fragment of α-synuclein; purchased Bachem Inc
Experimental: as §2, with “assay,” for “assay”, “NAC fibrils,” for “fibrillar amyloid,”, “NAC” for “IAPP”
In this study, 25 μM of pre-fibrillized NAC (Bachem Inc) was incubated at 37° C. for 3 days either alone or in the presence of dihydroxy synthetic analog compounds #1, 3, 23, 26, 52, 63, 66, 67, or EDTA (at NAC:test compound weight ratios of 1:1, 1:0.1, 1:0.01 or 1:0.001). Following 3-days of co-incubation, 50 βl of each incubation mixture was transferred into a 96-well microtiter plate containing 150 μl of distilled water and 50 μl of a Thioflavin T solution (i.e. 500 mM Thioflavin T in 250 mM phosphate buffer, pH 6.8). The fluorescence was read at 485 nm (444 nm excitation wavelength) using an ELISA plate fluorometer after subtraction with buffer alone or compound alone, as blank.

monomeric Aβ 1-42 = biological target: T4, monomeric Aβ 1-42 (Homo sapiens, UniProt P05067); assay: SDS-PAGE/Western blot of Aβ 1-42 after incubation with compounds; conditions: 25 μM pre-fibrillized Aβ 1-42, 37° C., 3 days, 0.2 μm filtrate, antibody 6E10
T4 construct: purchased Bachem Inc
Experimental: In this latter study, triplicate samples of pre-fibrillized Aβ 1-42 (25 μM) was incubated at 37° C. for 3 days, alone or in the presence of the compounds or EDTA. Five micrograms of each sample was then filtered through a 0.2 μm filter. Protein recovered from the filtrate was then loaded, and ran on a 10-20% Tris-Tricine SDS-PAGE, blotted to nitrocellulose and detected using an Aβ-antibody (clone 6E10; Senetek).

[3] = Aβ:test compound wt/wt ratio 1:0.001
[4] = Aβ:test compound wt/wt ratio 1:0.01
[5] = Aβ:test compound wt/wt ratio 1:0.1
[6] = Aβ:test compound wt/wt ratio 1:1
[7] = IAPP:test compound wt/wt ratio 1:0.001
[8] = IAPP:test compound wt/wt ratio 1:0.01
[9] = IAPP:test compound wt/wt ratio 1:0.1
[10] = IAPP:test compound wt/wt ratio 1:1
[11] = NAC:test compound wt/wt ratio 1:0.001
[12] = NAC:test compound wt/wt ratio 1:0.01
[13] = NAC:test compound wt/wt ratio 1:0.1
[14] = NAC:test compound wt/wt ratio 1:1

T1 sequence (P05067 672-713): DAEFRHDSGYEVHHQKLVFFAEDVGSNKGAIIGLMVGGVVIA
T4 sequence (P05067 672-713): as above

Cc1nc(-c2ccc(O)c(O)c2)cc(-c2ccc(O)c(O)c2)c1C#N [Compound 8, 4,6-bis(3,4-dihydroxyphenyl)-3-cyano-2-methylpyridine]
inhibition (Aβ 1-42 fibrils; [3]): 4.9 ± 2.27% | inhibition (Aβ 1-42 fibrils; [4]): 24.7 ± 3.51% | inhibition (Aβ 1-42 fibrils; [5]): 65.5 ± 0.17% | inhibition (Aβ 1-42 fibrils; [6]): 70.8 ± 2.57% | inhibition (IAPP fibrils [1]; [7]): 11.4 ± 12.8% | inhibition (IAPP fibrils [1]; [8]): 29.6 ± 5.97% | inhibition (IAPP fibrils [1]; [9]): 67.8 ± 1.74% | inhibition (IAPP fibrils [1]; [10]): 72.8 ± 1.77% | % Inhibition IAPP (result ± S.D.), Congo red binding (IAPP fibrils [2]; [7]): 0.0 ± 6.46% | % Inhibition IAPP (result ± S.D.), Congo red binding (IAPP fibrils [2]; [8]): 7.2 ± 2.27% | % Inhibition IAPP (result ± S.D.), Congo red binding (IAPP fibrils [2]; [9]): 0.0 ± 2.94% | % Inhibition IAPP (result ± S.D.), Congo red binding (IAPP fibrils [2]; [10]): 0.0 ± 2.84%

O=C(NCc1ccc(O)c(O)c1)c1ccc(O)c(O)c1 [Compound 52, 3,4-dihydroxybenzoic acid 3,4-dihydroxybenzylamide]
inhibition (Aβ 1-42 fibrils; [3]): 0% | inhibition (Aβ 1-42 fibrils; [4]): 12.1 ± 0.78% | inhibition (Aβ 1-42 fibrils; [5]): 53.6 ± 2.42% | inhibition (Aβ 1-42 fibrils; [6]): 93.7 ± 0.41% | inhibition (IAPP fibrils [1]; [7]): 16 ± 8.42% | inhibition (IAPP fibrils [1]; [8]): 49.2 ± 4.47% | inhibition (IAPP fibrils [1]; [9]): 86.9 ± 3.09% | inhibition (IAPP fibrils [1]; [10]): 97.9 ± 0.19% | % Inhibition IAPP (result ± S.D.), Congo red binding (IAPP fibrils [2]; [7]): 10.2 ± 0.52% | % Inhibition IAPP (result ± S.D.), Congo red binding (IAPP fibrils [2]; [8]): 11.0 ± 3.27% | % Inhibition IAPP (result ± S.D.), Congo red binding (IAPP fibrils [2]; [9]): 11.5 ± 1.21% | % Inhibition IAPP (result ± S.D.), Congo red binding (IAPP fibrils [2]; [10]): 31.3 ± 0.27% | inhibition (NAC fibrils; [11]): 13.8 ± 10.5% | inhibition (NAC fibrils; [12]): 79.6 ± 6.43% | inhibition (NAC fibrils; [13]): 89.2 ± 1.49% | inhibition (NAC fibrils; [14]): 99.7 ± 1.93% | disruption/disassembly of pre-formed NAC fibrils (in words) (NAC fibrils): dose-dependent disruption/disassembly

O=C(CCC(=O)Nc1ccc(O)c(O)c1)Nc1ccc(O)c(O)c1 [Compound 66, succinic acid bis(3,4-dihydroxyanilide)]
inhibition (Aβ 1-42 fibrils; [3]): 27.1 ± 3.51% | inhibition (Aβ 1-42 fibrils; [4]): 42 ± 2.36% | inhibition (Aβ 1-42 fibrils; [5]): 78.3 ± 4.17% | inhibition (Aβ 1-42 fibrils; [6]): 100 ± 0.68% | detection of Aβ 1-42 monomers (~4 kilodalton band) on Western blot (monomeric Aβ 1-42): not detected | inhibition (IAPP fibrils [1]; [7]): 11.1 ± 5.28% | inhibition (IAPP fibrils [1]; [8]): 47.6 ± 8.16% | inhibition (IAPP fibrils [1]; [9]): 94 ± 2.88% | inhibition (IAPP fibrils [1]; [10]): 98.5 ± 0.06% | % Inhibition IAPP (result ± S.D.), Congo red binding (IAPP fibrils [2]; [7]): 4.8 ± 1.86% | % Inhibition IAPP (result ± S.D.), Congo red binding (IAPP fibrils [2]; [8]): 5.7 ± 4.23% | % Inhibition IAPP (result ± S.D.), Congo red binding (IAPP fibrils [2]; [9]): 15.7 ± 2.53% | % Inhibition IAPP (result ± S.D.), Congo red binding (IAPP fibrils [2]; [10]): 41.4 ± 3.84% | inhibition (NAC fibrils; [11]): 30.5 ± 9.55% | inhibition (NAC fibrils; [12]): 43.4 ± 3.45% | inhibition (NAC fibrils; [13]): 82.5 ± 5.37% | inhibition (NAC fibrils; [14]): 98.9 ± 0.65% | disruption/disassembly of pre-formed NAC fibrils (in words) (NAC fibrils): dose-dependent disruption/disassembly

Oc1ccc(CN2CCN(Cc3ccc(O)c(O)c3)CC2)cc1O [Compound 9, 1,4-bis(3,4-dihydroxybenzyl)piperazine]
inhibition (Aβ 1-42 fibrils; [3]): 10.6 ± 0.93% | inhibition (Aβ 1-42 fibrils; [4]): 2 ± 10.8% | inhibition (Aβ 1-42 fibrils; [5]): 34.9 ± 1.69% | inhibition (Aβ 1-42 fibrils; [6]): 95.1 ± 0.13%
